What all share (assay type): in vivo
Experiment [1] concerns Nilaparvata lugens (brown plant hopper - nymphs). The experiment in a line: Contact test, brown plant hopper - nymphs (NL), Rice plant. The note with it: 72 h, 500 ppm, 3 days, read-out: NL grading of mortality. As to the method: (§1) The activity of the Product was determined using a variety of insect pests. The Product was used in the form of liquid preparations containing from 100 to 500 parts per million (ppm) by weight of the Product. The preparations were made by dissolving the Product in acetone and diluting the solutions with water containing 0.1% by weight of a wetting agent sold under the trade name "SYNPERONIC" NX until the liquid preparations contained the required concentration of the Product. "SYNPERONIC" is a Registered Trade Mark. The test procedure adopted with regard to each pest was basically the same and comprised supporting a number of the pests on a medium which was usually a host plant or a foodstuff on which the pests feed, and treating either or both the pests and the medium with the preparations. The mortality of the pests was then assessed at periods usually varying from one to seven days after the treatment.

For experiment [2], the system named is Spodoptera exigua (lesser army worm - larvae). The experiment is described as follows: Residual test, lesser army worm - larvae (SP), Cotton leaf. The conditions noted are these: 72 h, 500 ppm, 3 days, read-out: SP grading of mortality. The procedure: (§2) The activity of the Product was determined using a variety of insect pests. The Product was used in the form of liquid preparations containing from 100 to 500 parts per million (ppm) by weight of the Product. The preparations were made by dissolving the Product in acetone and diluting the solutions with water containing 0.1% by weight of a wetting agent sold under the trade name "SYNPERONIC" NX until the liquid preparations contained the required concentration of the Product. "SYNPERONIC" is a Registered Trade Mark.
(§3) The test procedure adopted with regard to each pest was basically the same and comprised supporting a number of the pests on a medium which was usually a host plant or a foodstuff on which the pests feed, and treating either or both the pests and the medium with the preparations. The mortality of the pests was then assessed at periods usually varying from one to seven days after the treatment.
(§4) The results of the tests are given in Table III for each of the Products, at the rate in parts per million given in the second column as a grading of mortality designated as A, B or C wherein A indicates 80-100% mortality or knockdown (70-100% for Meloidogyne incognita), B indicates 50-79% mortality knockdown or knockdown (50-69% for Meloidogyne incognita) and C indicates less than 50% mortality or knockdown.
(§5) In Table III the pest organism used is designated by a letter code and the pests species, the support medium or food, and the type and duration of test is given in Table II.
(lesser army worm - larvae)

In experiment [3] the test system is Tetranychus urticae (spider mites - adult). The experiment is described as follows: Contact test, spider mites - adult (TUa), French bean leaf. The note with it: 72 h, 500 ppm, 3 days, read-out: TUA grading of mortality. The procedure:
as §1

The test system of experiment [4] is Tetranychus urticae (spider mites - ova). The experiment in a line: Contact test, spider mites - ova (TUe), French bean leaf. The conditions noted are these: 144 h, 500 ppm, 6 days, read-out: TUE grading of mortality. The procedure: as §1
Experiment [5] concerns Musca domestica (houseflies - adults). The experiment is described as follows: Knockdown test, houseflies - adults (MD/KD), Cotton wool/sugar. The conditions noted are these: 500 ppm, 4 hours, read-out: MD/KD grading of knockdown. As to the method: as §2, §3
In the case of the species Musca domestica (housefly), an additional assessment to determine the knockdown effect of the compounds was performed.
as §5

Experiment [6] concerns Meloidogyne incognita (Tomato root knot eelworm - larvae). The experiment in a line: Residual test, Tomato root knot eelworm - larvae (MI), Semi in-vitro. The note with it: 168 h, rate column 500 ppm, application rate is half that recorded, 7 days, read-out: MI grading of mortality.
Experiment [7] relates to Myzus persicae (aphids). The experiment in a line: Contact test, aphids (MP), Chinese Cabbage leaf. The note with it: 72 h, 500 ppm, 3 days, read-out: MP grading of mortality. As to the method: as §1, with “treatment. […] In Table III the pest organism used is designated by a letter code and the pests species, the support medium or food, and the type and duration of test is given in Table II.” for “treatment.”

Experiment [8] deals with Heliothis virescens (tobacco budworm - larvae). The experiment in a line: Residual test, tobacco budworm - larvae (HV), Cotton leaf. The note with it: 72 h, read-out: HV grading of mortality. The procedure:
as §2, §3, §4, §5
(tobacco budworm - larvae)

Experiment [9] concerns Musca domestica (houseflies - adults). The experiment in a line: Contact test, houseflies - adults (MD), Cotton wool/sugar. The note with it: 24 h, 500 ppm, 1 day, read-out: MD grading of mortality. As to the method:
as §1

Experiment [10] deals with Diabrotica balteata (rootworm larvae). The experiment in a line: Residual test, rootworm larvae (DB), Filter paper/maize seed. The note with it: 72 h, 500 ppm, 3 days, read-out: DB grading of mortality. The procedure: as §1
Experiment [11] deals with Blattella germanica (cockroach nymphs). The experiment is described as follows: Residual test, cockroach nymphs (BG), Plastic pot. The conditions noted are these: 72 h, 500 ppm, 3 days, read-out: BG grading of mortality. The procedure: as §1

In US4791139A, “Diphenyl ether derivatives and their use as insecticides” (Imperial Chemical Industries PLC, priority 1986, dated 1988) one finds mortality and pest or weed control data, which are given here for ten compounds.

Molecules are shown by their SMILES.

With `CCOc1ccc(C(=CC=Cc2cccc(Oc3ccccc3)n2)C(F)(F)F)cc1` [Compound 100, 1,1,1-Trifluoro-2-(4-ethoxyphenyl)-5-(6-phenoxypyrid-2-yl)penta-2,4-diene], the mortality at 500 ppm is 50 to 79% in [1]; below 50% in [2]; below 50% in experiment [3]; below 50% in experiment [4]; below 50% in experiment [7]; below 50% in experiment [8]. Besides, the mortality at 500 ppm in experiment [9], in [10] and in experiment [11] was below 50% throughout. For the same compound, the pest or weed control at 500 ppm in experiment [5] lay in the range of 50 to 79%. The mortality at 250 µg/mL in [6] is below 50%.

In the case of `FC(F)(F)C(CCCc1cccc(Oc2ccccc2)c1)c1ccc(OC(F)(F)C(F)(F)Br)cc1` (racemic) [Compound 68, 1,1,1-trifluoro-2-[4-(2-bromo-1,1,2,2-tetrafluoroethoxy)phenyl]-5-(3-phenoxyphenyl)-pentane], the mortality at 500 ppm in experiment [1] is 80 to 100%; in [2], 50 to 79%; in [3] it was 80 to 100%; in experiment [4], 80 to 100%; in experiment [7] it was below 50%; in experiment [8], below 50%. The mortality at 500 ppm in experiment [9] is below 50%; in [10] it was 80 to 100%; in [11], 80 to 100%. In addition, the pest or weed control at 500 ppm in [5] is below 50%. Besides, the mortality at 250 µg/mL in experiment [6] was below 50%.

For `FC(F)C(CCCc1cccc(Oc2ccccc2)c1)c1ccc(OC(F)(F)F)cc1` (racemic) [Compound 83, 1,1-Difluoro-2-(4-trifluoromethoxyphenyl)-5-(3-phenoxyphenyl)pentane], the mortality at 500 ppm in experiment [1], in experiment [2], in experiment [3], in experiment [4], in [7] and in experiment [8] was 80 to 100% each time. For the same compound, the mortality at 500 ppm in [9], in experiment [10] and in experiment [11] was 80 to 100% throughout. In experiment [5], the pest or weed control at 500 ppm was 80 to 100%.

For the compound `FC(F)(F)C(CCCc1cccc(Oc2ccccc2)c1)c1ccc2c(c1)OCO2` (stereo not drawn) [Compound 40, 1,1,1-Trifluoro-2-(3,4-methylenedioxy)phenyl-5-(3-phenoxyphenyl)pentane], the mortality at 500 ppm was below 50% in experiment [1]; 80 to 100% in [2]; below 50% in [3]; below 50% in [4]; 80 to 100% in experiment [7]; 80 to 100% in [8]. Besides, the mortality at 500 ppm lay in the range of 80 to 100% in experiment [9], 80 to 100% in experiment [10] and 50 to 79% in experiment [11]. For the same compound, the pest or weed control at 500 ppm in experiment [5] was 80 to 100%.

In the case of `Fc1ccc(C=CC=C(c2ccc(OC(F)(F)F)cc2)C(F)(F)F)cc1Cc1ccccc1` [Compound 105, 1,1,1-Trifluoro-2-(4-trifluoromethoxyphenyl)-5-(4-fluoro-3-benzylphenyl)penta-2,4-diene], the mortality at 500 ppm is 80 to 100% in [1]; 80 to 100% in experiment [2]; 80 to 100% in experiment [3]; 80 to 100% in [4]; 80 to 100% in [7]; below 50% in [8]. In addition, the mortality at 500 ppm in experiment [9] is below 50%; in experiment [10] it was 80 to 100%; in [11], 80 to 100%. For the same compound, the pest or weed control at 500 ppm in [5] was below 50%.

For `FC(F)(F)C(=CCCc1cccc(Oc2ccccc2)c1)c1ccc2c(c1)OCO2` [Compound 41, 1,1,1-Trifluoro-2-(3,4-methylenedioxyphenyl)-5-(3-phenoxyphenyl)pent-2-ene], the mortality at 500 ppm in experiment [1] is below 50%; in experiment [2], 50 to 79%; in experiment [3], below 50%; in experiment [4] it was below 50%; in experiment [7] it was below 50%; in experiment [8], 50 to 79%. For the same compound, the mortality at 500 ppm in [9] is 80 to 100%; in experiment [10], 80 to 100%; in experiment [11] it was below 50%. Moreover, in [5], the pest or weed control at 500 ppm lay within 80 to 100%.

As to `CCOc1ccc(C(CCCc2cccc(Oc3ccccc3)n2)C(F)(F)F)cc1` (stereo not drawn) [Compound 98], the mortality at 500 ppm in experiment [1] is below 50%; in experiment [2], 80 to 100%; in [3], 80 to 100%; in experiment [4] it was below 50%; in experiment [7] it was 80 to 100%; in experiment [8], 80 to 100%. In addition, the mortality at 500 ppm in experiment [9], in [10] and in experiment [11] was 80 to 100% throughout. Moreover, the pest or weed control at 500 ppm in [5] was in the range of 80 to 100%.

For the compound `CCOc1ccc(C(=CC=Cc2ccc(F)c(Cc3ccccc3)c2)C(F)(F)F)cc1` [Compound 107, 1,1,1-Trifluoro-2-(4-ethoxyphenyl)-5-(4-fluoro-3-benzylphenyl)penta-2,4-diene], the mortality at 500 ppm was 50 to 79% in experiment [1]; 80 to 100% in experiment [2]; below 50% in [3]; below 50% in experiment [4]; 80 to 100% in experiment [7]; below 50% in [8]. In addition, the mortality at 500 ppm was below 50% in [9], 80 to 100% in experiment [10] and below 50% in [11]. For the same compound, in [5], the pest or weed control at 500 ppm is below 50%.

As to `Fc1ccc(CCCC(c2ccc(OC(F)(F)F)cc2)C(F)(F)F)cc1Cc1ccccc1` (stereo not drawn) [Compound 108], the mortality at 500 ppm in experiment [1], in experiment [2], in experiment [3], in experiment [4], in experiment [7] and in experiment [8] was 80 to 100% each time. For the same compound, the mortality at 500 ppm in experiment [9] is 80 to 100%; in experiment [10] it was below 50%; in [11], 80 to 100%. In addition, the pest or weed control at 500 ppm in [5] was in the range of 80 to 100%.

Consider `CCOc1ccc(C(CCCc2ccc(F)c(Cc3ccccc3)c2)C(F)(F)F)cc1` (racemic) [Compound 106, 1,1,1-Trifluoro-2-(4-ethoxyphenyl)-5-(3-benzyl-4-fluorophenyl)pentane], for which the mortality at 500 ppm in [1], in [2], in [3], in experiment [4], in experiment [7] and in [8] was 80 to 100% in each case. Besides, the mortality at 500 ppm in [9], in experiment [10] and in experiment [11] was 80 to 100% each time. Also, in experiment [5], the pest or weed control at 500 ppm fell in the range of 80 to 100%.

Broadly, the mortality is the percentage killed.
